Assay results published in US12391695B2, “PRMT5 inhibitors” (Lupin Limited, priority 2019, dated 2025).

Legend:
PRMT5:MEP50 = PRMT5:MEP50 (Homo sapiens, UniProt O14744); experiment: PRMT5 biochemical assay (HTRF, biotinylated H4R3 substrate), protocols 1 and 2; details: 1 μM SAM, 50 nM biotinylated H4R3, protocol 1 or 2 not given, read-out: IC50 (activity range), inhibition of PRMT5
Description: (§1) Inhibitory effect of compounds on PRMT5 was assessed using HTRF detection technology in biochemical assay. Biotinylated H4R3 (residues 1-21) was used as a substrate. Compounds were pre-incubated with 15-25 ng PRMT5:MEP50 per well of a 384-well plate for 30 min at room temperature in the assay buffer containing 20 mM Bicine, pH 7.6, 25 mM NaCl, 2 mM DTT, 0.01% Chicken albumin and 0.01% Tween-20. Reaction was initiated by adding 1 μM of SAM and 50 nM biotinylated H4R3. Total assay volume was 15 μL. Reaction was continued for 120 min at room temperature. Then detection solution containing Streptavidin-Eu cryptate, anti-rabbit IgG-XL-665, Histone H4R3 Dimethyl Symmetric (H4R3me2s) Polyclonal Antibody, all prepared in HTRF detection buffer was added and further incubated for 30 min at room temperature. HTRF signal was recorded in PHERAStar microplate reader. Ratio of signal obtained at 665 nm and 620 nm was used to compute the percent inhibition of compound as follows % Inhibition=100−((Test Ratio−Negative control Ratio)/(Positive control Ratio−Negative control Ratio)*100) where Positive control=PRMT5+SAM+H4R3 Negative control=PRMT5+H4R3 Biochemical Assay Protocol 2
as §1, with “2.5” for “15-25”, “4 h” for “120 min”, “control=PRMT5+H4R3” for “control=PRMT5+H4R3 Biochemical Assay Protocol 2”

Z-138 cells = experiment: Anti-cancer assay (Z-138), cell viability by CellTiterGlo; format: cell-based; details: Homo sapiens, 96 h treatment, read-out: IC50 (activity range), inhibition of cell viability
Description: Z-138 cells were seeded at a density of 2000-3000 cells per well in culture media (IMDM+10% FBS). PANC-1 (ATCC, CRL-1469™) and MIA PaCa-2 (ATCC, CRL-1420™) cells were seeded at a density of 200-300 cells per well in culture media (DMEM+10% FBS). Cells were seeded in opaque, flat bottomed tissue culture grade 96-well plates and Z-138 cells (suspension) were seeded and treated on the same day with various concentrations of test compounds. PANC-1 and MIA PaCa-2 cells, being adherent, were kept for overnight settlement at standard cell culture conditions (37° C., 5% CO2). On the following day, cells were treated with various concentrations of test compounds. Cells were treated with test compounds for a period of 96 h, 7 days and 10 days, for Z-138 cells, PANC-1 cells and MIA PaCa-2 cells, respectively. Cell viability was assessed using CellTiterGlo™ (Promega, USA) as per manufacturer's instructions. Relative Light Units (RLU) were read in Synergy™ 2 reader (Biotek, USA). The assay measures cellular ATP as an indicator of cell viability. RLU is proportional to the number of viable cells in the respective well. % inhibition of cell viability was calculated relative to the vehicle control samples containing media with 0.1% DMSO alone as per the formula below. (Avg. of Untreated Control−Avg. of Test)×100 Avg. Of Untreated Control
The IC50 values of individual compounds were calculated with Non Linear Regression Analysis using Graph Pad Prism (Graph Pad software, Inc, USA). • Anti-Cancer Assay (Z-138)

SDMA = SDMA inhibition assay in Z-138 cells (ELISA with anti-SDMA antibody); format: cell-based; details: Homo sapiens, Z-138, 48 h, 48 h treatment, read-out: IC50 (activity range), SDMA inhibition
Description: Z-138 cells (ATCC, CRL-3001™) were seeded at a density of 1 million cells/well in transparent, flat bottomed tissue culture grade 48-well plates. Cells were treated with various concentration of test compounds for a period of 48 h. Cell lysate was prepared using 1× CST Lysis buffer (Cell Signaling Technology, USA) and 500 ng/well/50 μL of lysate in pH 9.6 carbonate buffer was coated on 96-well Maxisorb plate and incubated overnight at 4° C. The plate was washed twice in 1×PBS containing 0.05% Tween 20 and blocked in 1% BSA for 1 h at ambient temperature. Further, the plate was incubated first with primary antibody (anti-SDMA antibody; CST #13222s) at ambient temperature for 2 h and then with HRP-conjugated secondary antibody at ambient temperature for 1 h with 2 intermittent washing steps in between.
For luminiscence based detection, HRP substrates (substrate A+substrate B in a 1:1 proportion) were added followed by luminiscence reading after 30 min in Synergy™ 2 reader (Biotek, USA).
For absorbance based detection, TMB substrate was added followed by addition of STOP solution (2N H2SO4) post colour development and absorbance (excitation 450 nm and emission 540 nm) was measured in Synergy™ 2 reader (Biotek, USA).
% inhibition of SDMA was calculated relative to the vehicle control samples containing media with 0.1% DMSO alone as per the formula below. (Avg. of Untreated Control−Avg. of Test)×100 Avg. Of Untreated Control
The IC50 values of individual compounds were calculated with Non Linear Regression Analysis using Graph Pad Prism (Graph Pad software, Inc, USA).

Sequence of PRMT5:MEP50 (O14744 whole entry, the tested form may be a part): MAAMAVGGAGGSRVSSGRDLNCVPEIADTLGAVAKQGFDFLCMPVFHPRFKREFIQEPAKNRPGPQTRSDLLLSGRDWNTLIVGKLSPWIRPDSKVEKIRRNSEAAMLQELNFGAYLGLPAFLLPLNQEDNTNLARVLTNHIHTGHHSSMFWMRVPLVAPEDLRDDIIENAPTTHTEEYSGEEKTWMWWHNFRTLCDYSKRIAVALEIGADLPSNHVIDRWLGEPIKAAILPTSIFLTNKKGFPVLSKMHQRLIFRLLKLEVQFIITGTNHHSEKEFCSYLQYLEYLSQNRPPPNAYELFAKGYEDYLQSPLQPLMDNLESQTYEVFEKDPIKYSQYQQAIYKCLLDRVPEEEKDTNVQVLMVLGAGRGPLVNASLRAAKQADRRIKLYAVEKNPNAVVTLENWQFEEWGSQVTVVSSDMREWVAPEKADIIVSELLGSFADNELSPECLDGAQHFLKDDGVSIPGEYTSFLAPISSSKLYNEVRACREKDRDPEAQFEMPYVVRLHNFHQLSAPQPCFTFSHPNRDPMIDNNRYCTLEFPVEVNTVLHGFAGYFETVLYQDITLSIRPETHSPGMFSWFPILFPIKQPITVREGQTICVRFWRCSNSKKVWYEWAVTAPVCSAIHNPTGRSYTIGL
Sequence of PRMT5:MEP50 (Q9BQA1 whole entry partner, the tested form may be a part): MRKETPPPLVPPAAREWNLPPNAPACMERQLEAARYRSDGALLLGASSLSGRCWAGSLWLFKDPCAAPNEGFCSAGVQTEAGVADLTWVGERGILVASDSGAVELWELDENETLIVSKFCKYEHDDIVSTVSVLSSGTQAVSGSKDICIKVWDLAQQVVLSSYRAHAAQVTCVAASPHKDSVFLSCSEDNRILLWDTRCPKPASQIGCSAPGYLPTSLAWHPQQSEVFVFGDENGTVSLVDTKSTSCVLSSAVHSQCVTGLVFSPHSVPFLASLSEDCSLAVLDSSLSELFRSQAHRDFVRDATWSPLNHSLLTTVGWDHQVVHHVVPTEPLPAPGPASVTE

IC50 (PRMT5:MEP50): > 0.95 nM
IC50 (Z-138 cells): > 1 nM
IC50 (SDMA): 1.1 to 50 nM
Compound: Nc1nc2cc(CCC3=C[C@@H](n4ccc5c4ncn4ccnc54)[C@H](O)[C@@H]3O)ccc2cc1Br [Compound 26, (1S,2R,5R)-3-(2-(2-Amino-3-bromoquinolin-7-yl)ethyl)-5-(7H-imidazo[1,2-c]pyrrolo[3,2-e]pyrimidin-7-yl)cyclopent-3-ene-1,2-diol]
